Test results taken from patent publication EP0791591B1, “Benzothiophenes, formulations containing same, and methods for their préparation” (ELI LILLY AND COMPANY, priority 1996, dated 1997).
Where two headings read alike, the source gives them in different places. Marks after values point to notes of the source that are not given here.

Experiments:
[1] = pKa determination
[2] = tested on: Serum cholesterol; assay: Serum cholesterol analysis in ovariectomized rats; format: in vivo, Sprague Dawley rats; settings: oral, daily for 4 days, decrease versus ovariectomized controls
Text: (§1) Seventy-five day old female Sprague Dawley rats (weight range of 200 to 225g) are obtained from Charles River Laboratories (Portage, MI). The animals are either bilaterally ovariectomized (OVX) or exposed to a Sham surgical procedure at Charles River Laboratories, and then shipped after one week. Upon arrival, they are housed in metal hanging cages in groups of 3 or 4 per cage and have ad libitum access to food (calcium content approximately 0.5%) and water for one week. Room temperature is maintained at 22.2° ± 1.7° C with a minimum relative humidity of 40%. The photoperiod in the room is 12 hours light and 12 hours dark.
(§2) Dosing Regimen Tissue Collection. After a one week acclimation period (therefore, two weeks post-OVX) daily dosing with test compound is initiated. 17α-ethynyl estradiol or the test compound is given orally, unless otherwise stated, as a suspension in 1% carboxymethylcellulose or dissolved in 20% cyclodextrin. Animals were dosed daily for 4 days. Following the dosing regimen, animals are weighed and anesthetized with a ketamine: Xylazine (2:1, V:V) mixture and a blood sample is collected by cardiac puncture. The animals are then sacrificed by asphyxiation with CO2, the uterus is removed through a midline incision, and a wet uterine weight is determined.
Cholesterol Analysis. Blood samples are allowed to clot at room temperature for 2 hours, and serum is obtained following centrifugation for 10 minutes at 3000 rpm. Serum cholesterol is determined using a Boehringer Mannheim Diagnostics high performance cholesterol assay. Briefly the cholesterol is oxidized to cholest-4-en-3-one and hydrogen peroxide. The hydrogen peroxide is then reacted with phenol and 4-aminophenazone in the presence of peroxidase to produce a p-quinone imine dye, which is read spectrophotemetrically at 500 nm. Cholesterol concentration is then calculated against a standard curve. The entire assay is automated using a Biomek Automated Workstation.

[3] = tested on: Uterine Eosinophil Peroxidase (EPO); settings: rat, in vivo
Text: as §1, §2
(§3) Uterine Eosinophil Peroxidase (EPO) Assay. Uteri are kept at 4° C until time of enzymatic analysis. The uteri are then homogenized in 50 volumes of 50 mM Tris buffer (pH - 8.0) containing 0.005% Triton X-100. Upon addition of 0.01% hydrogen peroxide and 10 mM O-phenylenediamine (final concentrations) in Tris buffer, increase in absorbance is monitored for one minute at 450 nm. The presence of eosonophils in the uterus is an indication of estrogenic activity of a compound. The maximal velocity of a 15 second interval is determined over the initial, linear portion of the reaction curve.

[4] = physchem; settings: 66% dmf
[5] = tested on: ovariectomized rats; assay: Osteoporosis Test Procedure: 35-day ovariectomized rat, femur density; format: in vivo, Sprague Dawley rats; settings: oral, in 20% hydroxypropyl β-cyclodextrin, daily for 35 days; result in words
Method: Following the General Preparation Procedure, infra, the rats are treated daily for 35 days (6 rats per treatment group) and sacrificed by carbon dioxide asphyxiation on the 36th day. The 35 day time period is sufficient to allow maximal reduction in bone density, measured as described herein. At the time of sacrifice, the uteri are removed, dissected free of extraneous tissue, and the fluid contents are expelled before determination of wet weight in order to confirm estrogen deficiency associated with complete ovariectomy. […] The uteri are then placed in 10% neutral buffered formalin to allow for subsequent histological analysis. The right femurs are excised and digitilized x-rays generated and analyzed by an image analysis program (NIH image) at the distal metaphysis. The proximal aspect of the tibiae from these animals are also scanned by quantitative computed tomography. In accordance with the above procedures, compounds of the present invention and ethynyl estradiol (EE2) in 20% hydroxypropyl β-cyclodextrin are orally administered to test animals.

[6] = tested on: Uterine Eosinophil Peroxidase (EPO); assay: Uterine Eosinophil Peroxidase (EPO) Assay in ovariectomized rats; settings: for Uterine Eosinophil (Vmax): oral, daily for 4 days, eosinophil peroxidase Vmax
Text: as §1, §2, §3

[7] = tested on: ovariectomized rats; assay: Uterine weight in ovariectomized rat post-menopausal model, 4 days oral dosing; settings: daily for 4 days, increase versus ovariectomized controls
Text: as §1, §2

[8] = tested on: MCF-7 breast adenocarcinoma cells (ATCC HTB 22); assay: MCF-7 Proliferation Assay (tritiated thymidine); format: cell-based; settings: Homo sapiens, MCF7; MCF-7 cells, 48 hours with drug, tritiated thymidine pulse 4 hours
Method: MCF-7 breast adenocarcinoma cells (ATCC HTB 22) are maintained in MEM (minimal essential medium, phenol red-free, Sigma, St. Louis, MO) supplemented with 10% fetal bovine serum (FBS) (V/V), L-glutamine (2 mM), sodium pyruvate (1 mM), HEPES {(N-[2-hydroxyethyl]piperazine-N'-[2-ethanesulfonic acid]10 mM}, non-essential amino acids and bovine insulin (1 ug/mL) (maintenance medium). Ten days prior to assay, MCF-7 cells are switched to maintenance medium supplemented with 10% dextran coated charcoal stripped fetal bovine serum (DCC-FBS) assay medium) in place of 10% FBS to deplete internal stores of steroids. MCF-7 cells are removed from maintenance flasks using cell.dissociation medium (Ca++/Mg++ free HBSS (phenol red-free) supplemented with 10 mM HEPES and 2 mM EDTA). Cells are washed twice with assay medium and adjusted to 80,000 cells/mL. Approximately 100 µL (8,000 cells) are added to flat-bottom microculture wells (Costar 3596) and incubated at 37° C in a 5% CO2 humidified incubator for 48 hours to allow for cell adherence and equilibration after transfer. Serial dilutions of drugs or DMSO as a diluent control are prepared in assay medium and 50 µL transferred to triplicate microcultures followed by 50 µL assay medium for a final volume of 200 µL. […] Samples are counted by liquid scintillation using a Wallac BetaPlace β counter. […]

[O-][N+]1(CCOc2ccc(Cc3c(-c4ccc(O)cc4)sc4cc(O)ccc34)cc2)CCCCC1 [Example 7, [2-(4-Hydroxyphenyl)-6-hydroxybenzo[b]thien-3-yl][4-[2-(1-piperidinyl)ethoxy]phenyl]methane N-oxide]
pKa [1]: 6.49

COc1ccc(-c2sc3cc(OC)ccc3c2C(=O)c2ccc(OCC[N+]3([O-])CCCCC3)cc2)cc1 [Example 2]
Serum Cholest. % Dec. ([2]; 1.0 mg/kg): 65.7* %
Uterine Eosinophil (Vmax) [3]: 11.2
pKa [4]: 6.39

[2-(4-n-Butylsulfonoylphenyl)-6-n-butylsulfonoylbenzo[b]thien-3-yl][4-[2-(1-piperidinyl)ethoxy]phenyl]methanone N-oxide [Example 5]
Serum Cholest. % Dec. ([2]; 1.0 mg/kg): 74.9* %
Uterine Eosinophil (Vmax) [3]: 4.7

C#C[C@]1(O)CC[C@H]2[C@@H]3CCc4cc(O)ccc4[C@H]3CC[C@@]21C [EE2, 17α-ethynyl estradiol, reference compound]
Serum Cholest. % Dec. ([2]; 0.1 mg/kg): 87.3* %
bone loss (femur density) [5]: prevented this loss
Uterine Eosinophil (Vmax) ([6]; 0.1 mg/kg): 205.8*
eosinophil infiltration into the uterus ([6]; result in words, stromal layer of ovariectomized rat uteri): substantial and expected increase
Uterine Weight % Inc ([7]; 0.1 mg/kg): 207.5* %

CC[N+]([O-])(CC)CCOc1ccc(C(=O)c2c(-c3ccc(O)cc3)sc3cc(O)ccc23)cc1 [Example 3, [2-(4-Hydroxyphenyl)-6-hydroxybenzo[b]thien-3-yl][4-[2-(N, N-diethyl)ethoxy]phenyl]methanone N-oxide]
Serum Cholest. % Dec. ([2]; 1.0 mg/kg): 64.2* %
Uterine Eosinophil (Vmax) [3]: 21.7*
pKa [4]: 6.15

O=C(c1ccc(OCC[N+]2([O-])CCCCC2)cc1)c1c(-c2ccc(O)cc2)sc2cc(O)ccc12 [Example 1, [2-(4-Hydroxyphenyl)-6-hydroxybenzo[b]thien-3-yl][4-[2-(1-piperidinyl)ethoxy]phenyl]methanone N-oxide]
Serum Cholest. % Dec. ([2]; 0.1 mg/kg): 44.9* %
Serum Cholest. % Dec. ([2]; 1.0 mg/kg): 68.7* %
Serum Cholest. % Dec. ([2]; 10.0 mg/kg): 70.3* %
IC50 [8]: ~1000 nM
pKa ([1]; 66% dmf): 6.28
Uterine Eosinophil (Vmax) ([6]; 0.1 mg/kg): 4.4
Uterine Eosinophil (Vmax) ([6]; 1.0 mg/kg): 4.6
Uterine Eosinophil (Vmax) ([6]; 10.0 mg/kg): 2.5
Uterine Weight % Inc ([7]; 0.1 mg/kg): 31.2* %
Uterine Weight % Inc ([7]; 1.0 mg/kg): 29.6* %
Uterine Weight % Inc ([7]; 10.0 mg/kg): 8.3%

O=C(c1ccc(OCC[N+]2([O-])CCOCC2)cc1)c1c(-c2ccc(O)cc2)sc2cc(O)ccc12 [Example 4, [2-(4-Hydroxyphenyl)-6-hydroxybenzo[b]thien-3-yl][4-[2-(1-morpholino)ethoxy]phenyl]methanone N-oxide]
Serum Cholest. % Dec. ([2]; 1.0 mg/kg): 56.2* %
Uterine Eosinophil (Vmax) [3]: 4.1

[O-][N+]1(CCOc2ccc(C(O)c3c(-c4ccc(O)cc4)sc4cc(O)ccc34)cc2)CCCCC1 (stereo not shown) [Example 6]
pKa [1]: 6.41
